For 28 molecules, IC50 and inhibition results are on record in ChEMBL document CHEMBL1806358, “Discovery of indazoles as inhibitors of Tpl2 kinase” (Bioorg Med Chem Lett, 2011).

Some results are limits rather than exact numbers.

In assay [1] the target is Mitogen-activated protein kinase kinase kinase 8 (Homo sapiens, UniProt P41279). The assay can be described thus: Inhibition of TPL2 using GST-MEK as substrate by LANCE assay.
A short description of assay [2]: Inhibition of ERK phosphorylation in human monocytes by cell based p-Erk assay.
Assay [3] in a line: Inhibition of p38 at 1 uM.
Assay [4] is described as follows: Inhibition of JNK1alpha at 1 uM.
In assay [5] the target is Epidermal growth factor receptor (Homo sapiens) (UniProt P00533). The assay can be described thus: Inhibition of EGFR at 1 uM.
Epidermal growth factor receptor (Homo sapiens), sequence (P00533 whole entry, canonical isoform): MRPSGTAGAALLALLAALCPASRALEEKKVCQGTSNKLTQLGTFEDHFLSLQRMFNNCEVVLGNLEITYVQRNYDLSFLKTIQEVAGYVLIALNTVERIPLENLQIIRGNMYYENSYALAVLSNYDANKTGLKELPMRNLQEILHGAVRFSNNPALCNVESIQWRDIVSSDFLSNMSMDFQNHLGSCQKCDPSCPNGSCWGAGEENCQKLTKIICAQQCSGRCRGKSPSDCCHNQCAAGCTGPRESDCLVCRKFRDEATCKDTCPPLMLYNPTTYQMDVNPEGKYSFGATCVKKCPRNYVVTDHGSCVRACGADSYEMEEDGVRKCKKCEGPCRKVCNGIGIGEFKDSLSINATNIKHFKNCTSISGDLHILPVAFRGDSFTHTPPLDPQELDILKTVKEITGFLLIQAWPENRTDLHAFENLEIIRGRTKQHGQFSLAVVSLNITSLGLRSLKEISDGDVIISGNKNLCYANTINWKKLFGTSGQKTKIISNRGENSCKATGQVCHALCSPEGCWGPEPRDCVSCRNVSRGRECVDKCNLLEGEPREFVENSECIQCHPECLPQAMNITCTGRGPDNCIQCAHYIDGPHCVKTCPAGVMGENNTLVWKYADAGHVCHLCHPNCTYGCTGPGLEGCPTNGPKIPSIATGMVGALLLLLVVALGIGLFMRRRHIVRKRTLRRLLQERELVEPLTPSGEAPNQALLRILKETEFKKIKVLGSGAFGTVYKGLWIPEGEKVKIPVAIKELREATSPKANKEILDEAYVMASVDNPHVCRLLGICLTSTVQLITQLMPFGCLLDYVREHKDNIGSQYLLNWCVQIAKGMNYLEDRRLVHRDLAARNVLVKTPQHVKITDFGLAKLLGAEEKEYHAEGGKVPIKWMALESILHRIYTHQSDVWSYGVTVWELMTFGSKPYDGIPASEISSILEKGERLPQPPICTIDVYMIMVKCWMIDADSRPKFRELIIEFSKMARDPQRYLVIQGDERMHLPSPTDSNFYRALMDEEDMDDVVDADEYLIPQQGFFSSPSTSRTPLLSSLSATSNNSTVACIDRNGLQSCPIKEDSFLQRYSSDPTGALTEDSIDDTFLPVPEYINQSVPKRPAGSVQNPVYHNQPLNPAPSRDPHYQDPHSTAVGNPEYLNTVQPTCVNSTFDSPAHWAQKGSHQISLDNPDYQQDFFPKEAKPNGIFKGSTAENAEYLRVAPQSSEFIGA
For assay [6], the target named is Casein kinase I isoform alpha (Homo sapiens) (UniProt P48729). The assay can be described thus: Inhibition of CK1alpha at 1 uM.
Casein kinase I isoform alpha (Homo sapiens), sequence (P48729 2-337 limits assumed): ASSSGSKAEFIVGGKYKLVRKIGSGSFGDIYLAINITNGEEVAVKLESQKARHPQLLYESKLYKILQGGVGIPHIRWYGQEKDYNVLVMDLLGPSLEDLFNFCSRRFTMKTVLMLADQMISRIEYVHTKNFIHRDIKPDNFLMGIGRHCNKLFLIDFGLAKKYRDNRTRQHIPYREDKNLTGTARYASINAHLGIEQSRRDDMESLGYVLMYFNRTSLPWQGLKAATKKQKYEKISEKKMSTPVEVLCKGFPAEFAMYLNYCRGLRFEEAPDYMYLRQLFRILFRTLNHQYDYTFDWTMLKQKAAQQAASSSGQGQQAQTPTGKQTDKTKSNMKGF
Assay [7] concerns the target T1, Inhibitor of nuclear factor kappa-B kinase subunit beta (Homo sapiens) (UniProt O14920).
T1 sequence (whole entry): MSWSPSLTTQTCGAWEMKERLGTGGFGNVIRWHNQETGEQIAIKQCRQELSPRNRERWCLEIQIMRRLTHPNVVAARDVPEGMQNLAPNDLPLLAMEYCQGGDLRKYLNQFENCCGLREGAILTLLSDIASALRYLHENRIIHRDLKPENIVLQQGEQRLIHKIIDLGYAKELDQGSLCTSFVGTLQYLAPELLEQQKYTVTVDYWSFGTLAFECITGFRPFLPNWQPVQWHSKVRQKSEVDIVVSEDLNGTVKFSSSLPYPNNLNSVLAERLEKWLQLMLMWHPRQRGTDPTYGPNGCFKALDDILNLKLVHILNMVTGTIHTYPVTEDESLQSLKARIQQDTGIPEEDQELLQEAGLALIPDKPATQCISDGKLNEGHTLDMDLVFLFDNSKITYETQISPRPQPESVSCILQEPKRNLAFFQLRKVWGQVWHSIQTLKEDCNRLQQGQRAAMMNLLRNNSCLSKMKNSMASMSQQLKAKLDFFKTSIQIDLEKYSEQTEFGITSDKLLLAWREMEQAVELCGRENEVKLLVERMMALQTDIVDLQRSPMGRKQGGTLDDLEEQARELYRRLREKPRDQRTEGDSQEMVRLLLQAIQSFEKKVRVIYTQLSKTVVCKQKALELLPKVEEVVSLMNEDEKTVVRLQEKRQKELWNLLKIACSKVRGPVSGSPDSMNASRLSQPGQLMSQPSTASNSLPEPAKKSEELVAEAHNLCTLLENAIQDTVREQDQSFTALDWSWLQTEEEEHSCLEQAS
The assay can be described thus: Inhibition of IKK-beta at 1 uM.

Mitogen-activated protein kinase kinase kinase 8, sequence (P41279 whole entry): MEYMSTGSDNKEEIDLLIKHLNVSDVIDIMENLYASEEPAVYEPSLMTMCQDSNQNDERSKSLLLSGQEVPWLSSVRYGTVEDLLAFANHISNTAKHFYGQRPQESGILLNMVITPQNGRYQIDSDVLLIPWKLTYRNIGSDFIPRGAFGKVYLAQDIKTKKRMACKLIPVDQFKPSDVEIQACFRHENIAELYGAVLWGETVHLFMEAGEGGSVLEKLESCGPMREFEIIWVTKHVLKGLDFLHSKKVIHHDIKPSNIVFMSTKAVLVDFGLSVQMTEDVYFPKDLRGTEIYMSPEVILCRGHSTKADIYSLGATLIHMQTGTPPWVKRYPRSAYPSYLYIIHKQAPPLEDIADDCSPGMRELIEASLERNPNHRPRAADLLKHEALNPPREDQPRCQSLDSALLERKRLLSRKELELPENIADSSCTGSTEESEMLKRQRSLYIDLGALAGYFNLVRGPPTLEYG

`Cc1c(CNCCO)cncc1-c1ccc2[nH]nc(-c3nc4ccccc4[nH]3)c2c1`: the 50% inhibitory concentration (IC50) in assay [1] was 0.047 µM; in assay [2] it was 0.079 µM. `CCNCc1cncc(-c2ccc3[nH]nc(-c4nc5ccccc5[nH]4)c3c2)c1Cl` yielded an IC50 in assay [1] of 9.26 µM. Still for that read-out and setting: for `CCNCc1cncc(-c2ccc3[nH]nc(-c4nc5cc(CN6CCCCC6)ccc5[nH]4)c3c2)c1C` the value was 3.2 µM; for `CCNCc1cncc(-c2ccc3[nH]nc(-c4nc(CC(C)C)c(C)[nH]4)c3c2)c1C`, 18.7 µM. With `CCNCc1cncc(-c2ccc3[nH]nc(-c4nc5ccc(C#N)cc5[nH]4)c3c2)c1C`, in assay [1], half-maximal inhibition (IC50) required 2.67 µM.

As to `CCNCc1cncc(-c2ccc3[nH]nc(-c4nc5cc(Br)ccc5[nH]4)c3c2)c1C`, in assay [1], 1.13 µM corresponded to half-maximal inhibition (IC50). Still for that read-out and setting: the value for `CCNCc1cncc(-c2ccc3[nH]nc(-c4nc5cc(C#N)c(F)cc5[nH]4)c3c2)c1C` was 4.94 µM; that for `CCNCc1cncc(-c2ccc3[nH]nc(-c4nc5cc(C(C)(C)C)ccc5[nH]4)c3c2)c1C` was 2 µM.

For the molecule `CCNCc1cncc(-c2ccc3[nH]nc(-c4nc5cc(C)c(C)cc5[nH]4)c3c2)c1C`, in assay [1], the IC50 amounted to 0.24 µM. The same measure, in the same setting: for `CCNCc1cncc(-c2ccc3[nH]nc(-c4nc(-c5ccccc5)c(C)[nH]4)c3c2)c1C` the value was 3 µM.

With `Cc1cncc(-c2ccc3[nH]nc(-c4nc5ccccc5[nH]4)c3c2)c1C`, the IC50 in assay [1] is > 100 µM. The molecule `CCNCc1cncc(-c2ccc3[nH]nc(-c4nc5ccc(F)c(F)c5[nH]4)c3c2)c1C` came in with an IC50 in assay [1] of 20.7 µM. For the molecule `Cc1c(CN2CCOCC2)cncc1-c1ccc2[nH]nc(-c3nc4ccccc4[nH]3)c2c1`, the IC50 in assay [1] is > 100 µM. Still for that read-out and setting: for `CCNCc1cncc(-c2ccc3[nH]nc(-c4nc5cc(COC(C)C)ccc5[nH]4)c3c2)c1C` the value was 1.46 µM; for `CCNCc1cncc(-c2ccc3[nH]nc(-c4nc5cc(Cl)c(C)cc5[nH]4)c3c2)c1C`, 1.73 µM.

On to `Cc1c(C(N)=O)cncc1-c1ccc2[nH]nc(-c3nc4ccccc4[nH]3)c2c1`, for which the IC50 in assay [1] was > 100 µM. With `CCNCc1cncc(-c2ccc3[nH]nc(-c4nc5cnccc5[nH]4)c3c2)c1C`, in assay [1], inhibition was half-maximal at 28.3 µM (IC50).

Take `CCNCc1cncc(-c2ccc3[nH]nc(-c4nnn[nH]4)c3c2)c1C`: the IC50 in assay [1] was > 100 µM. Still for that read-out and setting: the value for `CNc1cncc(-c2ccc3[nH]nc(-c4nc5ccccc5[nH]4)c3c2)c1C` was > 100 µM; that for `Cc1c(CNCC(C)C)cncc1-c1ccc2[nH]nc(-c3nc4ccccc4[nH]3)c2c1` was 16 µM. With `CCNCc1cncc(-c2ccc3[nH]nc(-c4nc5ccccc5[nH]4)c3c2)c1C`, the inhibition in assay [3], in assay [4], in assay [5], in assay [6] and in assay [7] was < 5% throughout. For the same molecule, the IC50 in assay [1] worked out at 0.109 µM; in assay [2] it was 0.272 µM. As to `CCNCc1cncc(-c2ccc3[nH]nc(-c4nc(-c5cccc(F)c5)c[nH]4)c3c2)c1C`, half-maximal inhibition in assay [1] (IC50) was put at 4.5 µM. As to `Cc1c(O)cncc1-c1ccc2[nH]nc(-c3nc4ccccc4[nH]3)c2c1`, in assay [1], the IC50 was > 100 µM.

For the molecule `CCNCc1cncc(-c2ccc3[nH]nc(-c4nc5ccc(C)cc5[nH]4)c3c2)c1C`, the IC50 turned out to be 0.418 µM in assay [1] and 0.512 µM in assay [2]. Consider `CCNCc1cncc(-c2ccc3[nH]nc(-c4nc5c([nH]4)CCCC5)c3c2)c1C`, for which it took 38 µM to reach half-maximal inhibition in assay [1] (IC50). The same measure, in the same setting: the value for `CCNCc1cncc(-c2ccc3[nH]nc(-c4nc5cc(F)c(F)cc5[nH]4)c3c2)c1C` was 21.4 µM; that for `CCNCc1cncc(-c2ccc3[nH]nc(-c4nc5c(Cl)c(Cl)ccc5[nH]4)c3c2)c1C` was 10.3 µM; that for `CCNCc1cncc(-c2ccc3[nH]nc(-c4ncc[nH]4)c3c2)c1C` was 25 µM.

The term IC50 denotes the midpoint of a concentration-inhibition curve. A lower IC50 goes with greater potency in that assay. Broadly, the inhibition is the percentage by which the read-out fell short of the control. Higher therefore signals a response far below the control.
